{
  "source": "patent US20230003644A1",
  "about": "“PHOTONIC CHIP FOR MONITORING ACTIVITIES OF LIVING CELLS” (THE UNIVERSITY OF HONG KONG, priority 2021, published 2023)",
  "key": {"[1]": {"tested_on": "human monocytic THP-1 cells", "assay": "GaN chipscope monitoring of cell differentiation (cell area and roundness from images)", "assay_type": "cell-based", "conditions": "THP-1 monocyte to M0, PMA 25 ng/mL, 3-9 h after stimulation", "description": "The cell refractive index is an intrinsic optical parameter that varies with different cell phenotypes. This inspired the exploration of whether the sensing platform could track online the dynamics of cell differentiation and distinguish the different cell phenotypes. In this experiment, human monocytic THP-1 cells are employed as the cell model due to their multi-phenotypic characteristics, including the initial suspended monocyte, adhered macrophage (M0), and two major polarized states (adhered M1 and M2). Here, THP-1 cells differentiated from suspended state (monocyte) to adhered M0 state by phorbol 12-myristate 13-acetate (PMA), followed by induction of the resultant M0 cells to polarize to M1 by LPS/FN-gamma. The process is monitored throughout by the GaN chipscope system (FIG. 10a).\nConsistent with the photocurrent signal, the imaging system recorded a fast cell rolling behavior in the initial 30 min before the cells settled down (FIG. 10b). PMA (25 ng/mL) is then loaded to trigger monocyte to macrophage differentiation. It is evident from the photocurrent signal that monocytes responded strongly against PMA in 3-9 h after stimulation, and this response became mild in the following 11 h (FIG. 10b).\nPhorbol-12-myristate-13-acetate (PMA, MCE, 25 ng/mL) was used to induce monocytes differentiation to M0 macrophages. […]"}, "THP-1 cells": {"tested_on": "THP-1 cells", "assay": "Flow cytometry of macrophage surface markers CD11b and CD80", "assay_type": "cell-based, human", "conditions": "THP-1 cells after incubation with PMA", "method": "Phorbol-12-myristate-13-acetate (PMA, MCE, 25 ng/mL) was used to induce monocytes differentiation to M0 macrophages. For further polarization, 100 ng/mL lipopolysaccharide (LPS, Thermo) and 20 ng/mL interferon-γ (IFN-γ, Thermo) were added to the culture to induce M1 generation. The cells were stimulated to M0 and M1 macrophages for 24 h. Flow cytometry and immunofluorescence staining were used to assess the expression of macrophage-specific cell surface marker: CD11 b for monocyte/macrophage differentiation and CD 80 for M1 macrophage polarization.\nThe harvested cells were washed with cold PBS and then the Fc receptor binding sites were blocked by incubating with Human TruStain FcX™ (422302, Biolegned) on ice for 20 min. The cells were then incubated with either FITC labeled CD 11 b (301329, Biolegend) or FITC labeled CD 80 (305206, Biolegend) in darkness for another 30 min. After centrifugation, the cells were washed twice with FACS buffer (PBS containing 2% BSA) and immediately measured by the flow cytometer Novoexpress (Agilent)."}, "NIH 3T3 cells": {"tested_on": "NIH 3T3 cells", "assay": "Label-free monitoring of cell adhesion, morphology and intracellular dynamics on the LED/GaN chipscope (photocurrent and DIC imaging)", "assay_type": "cell-based", "description": "As a monolithic integration design of the chip, the same shared sapphire substrate can realize the light coupling from the LED to the PD without any external optics, as shown in FIG. 5a. In particular, when the lights emitted from LED reached external media with a low RI (i.e., nmedia<nsapphire), total internal reflection occurred at the sapphire/media interface, causing some light to be reflected into the light-detecting region. The intensity of the reflected light is then detected by the PD. Since the critical angle enlarges as the refractive index increases, less light is reflected back to the PD, resulting in a decrease in the photocurrent. When the cells are in contact with the chip surface, the sensor provides a rapid photocurrent response due to the obvious RI change from sapphire-culture medium (1.78 to 1.337) to sapphire-cells (1.78 to 1.343-1.48). Furthermore, the formation of strong cell-substrate adhesion and/or the evolution of cell morphology could also result in changes in the recorded photocurrent.\nNIH 3T3 cells are used in the present study due to their rapid adhesion response and significant cell area changes during spreading. First performed a live/dead assay test to evaluate the potential phototoxicity of the chip to the cells. […] Next, after the chip was stabilized in the incubator at 37° C., the cell suspension was added into the chip chamber. […] Benefitting from the integrated mini-DIC imaging system, we can clearly capture the cell morphology changes in real-time. As shown in the top panel of FIG. 7b, the round cells gradually precipitated onto the chip surface in the first 30 min (step 1), and then started to extend in the next 4 h (step 2). After that, they continued to flatten and formed a dense monolayer sheet covering the entire chip surface (step 3). These observed cell morphology changes closely matched the optical response of the chip, indicating the successful integration of GaN chip-based sensing and DIC imaging units in our system for cellular activity monitoring. Additionally, to mimic the cell detachment process (step 4), we treated the cells with sodium dodecyl sulfate (SDS), a known surfactant that can detach and lyse adhering cells from culture dishes or flasks.\n• Cells (NIH 3T3, 0.3 million/mL, 500 uL, 37° C.) were seeded on the LED chip and transferred to the incubator (37° C.). Then the ammeter started to monitor the optical current at specific time points. The control experiment was performed by monitoring the solo cell culture medium with an identical chip (DMEM, 500 uL, 37° C.). • The bright-field images of cells were collected at specific time points to monitor the initial stage of cells adhesion and extension. The cells were cultured on sapphire, the substrate of which was identical with the top layer of LED chips.\n3T3 cells were grown on the chip surface for overnight and then were washed once and replaced with HEPES buffer (HBSS). After the system was restabilized, various concentrations of thrombin (MCE) were injected into the cell chamber. The signal dynamics were recorded by a meter."}, "[2]": {"tested_on": "human lung adenocarcinoma cells (A549)", "assay": "GaN chipscope drug screening: cytotoxicity of an anticancer drug on an A549 cell monolayer (photocurrent and imaging)", "assay_type": "cell-based", "conditions": "for decrease of cell confluence: after 24 h incubation", "method": "The A549 cells are seeded in the chamber of the platform and cultured for 24 h for fully spreading. Afterward, 10 μM, 30 μM or 50 μM of β-lapachone is added into the chambers, respectively.\nAdditionally, the photocurrent curves offered valuable practical information for the study of drug-cell interactions. First, by plotting the slope of the tangent line, the speed of cell response at different periods was analyzed. […] Indeed, a higher dose is more toxic and induces faster cell death. Thirdly, by coupling the imaging system, we were able to qualitatively and quantitatively analyze the cell-drug interactions. As shown in FIG. 9b-d, the cells shrank in a dose-dependent manner after β-lapachone treatment. Specifically, cells treated with a lower dose (10 μM) slowly shrank over time, but there is no obvious increase in intercellular spaces during the 24 h. […] It is believed that the increase in photocurrent in higher dose-treated cells is contributed by both cell morphology changes as well as by cell intracellular dynamics alternation. Further, the cell confluency is calculated based on the photos taken by the imaging system."}, "[3]": {"tested_on": "human lung adenocarcinoma cells (A549)", "assay": "GaN chipscope drug screening: cytotoxicity of an anticancer drug on an A549 cell monolayer (photocurrent and imaging)", "assay_type": "cell-based", "conditions": "A549, 5 hours of drug treatment"}, "intracellular Ca2+": {"tested_on": "intracellular Ca2+", "assay": "Living cell calcium tracking (Fluo-3 fluorescence)", "assay_type": "cell-based", "conditions": "low-dose thrombin (2 U/mL)", "method": "After the cells were grown on the confocal dish for 24 h, they were washed by PBS and cultured in living cell fluorescence imaging medium (Thermo) with the calcium indicator (Fluo-3, Invitrogen, […]) and pluronic F-127 (0.02%) in incubator for 1 h. They were then washed by fresh culture medium twice and incubated for a further 30 min to allow complete de-esterification of intracellular acetoxymethyl esters. The living cell fluorescent images were then captured by fluorescence microscope (Zeiss) with the frame rate of 1 side/min."}},
  "data": [
    {"compound": "CCCCCCCCCCCCCC(=O)O[C@@H]1[C@@H](C)[C@@]2(O)[C@@H](C=C(CO)C[C@]3(O)C(=O)C(C)=C[C@@H]23)[C@@H]2C(C)(C)[C@]12OC(C)=O", "note": "[PMA, phorbol 12-myristate 13-acetate]", "values": [
      {"measurement": "increase in cell spreading area", "setting": "[1]", "value": 137, "unit": "%"},
      {"measurement": "expression of CD11b", "setting": "THP-1 cells", "value": "significantly increased"}
    ]},
    {"compound": "CCCCCCCCCCCCOS(=O)(=O)[O-].[Na+]", "note": "[SDS, sodium dodecyl sulfate]", "values": [
      {"measurement": "rapid increase of photocurrent signal after addition", "setting": "NIH 3T3 cells; 3T3 monolayer, cell detachment step", "value": 4.24, "unit": "%"},
      {"measurement": "detachment of cell monolayer from chip surface", "setting": "NIH 3T3 cells; 3T3 monolayer, within a few seconds of loading", "value": "completely detached"}
    ]},
    {"compound": "Cc1ccc2c(c1)C(=O)C1(O)CCN(c3ccccc3)C1=N2", "note": "(centres unmarked) [blebbistatin]", "values": [
      {"measurement": "cell morphology after treatment (imaging)", "setting": "NIH 3T3 cells; 3T3 cells, 50 μM, next 1 h, increased cell gaps and dendritic morphologies", "value": "gradually shrank"},
      {"measurement": "increase of relative optical current compared to the control group", "setting": "NIH 3T3 cells; 3T3 cells, blebbistatin 50 μM, treated for 50 min", "value": 1.02, "unit": "%"}
    ]},
    {"compound": "CC1(C)CCC2=C(O1)c1ccccc1C(=O)C2=O", "note": "[β-lapachone]", "values": [
      {"measurement": "reaction time of the cells from photocurrent curve", "setting": "[2]; A549, 10 μM", "value": 20.2, "unit": "h"},
      {"measurement": "reaction time of the cells from photocurrent curve", "setting": "[2]; A549, 30 μM", "value": 11.6, "unit": "h"},
      {"measurement": "reaction time of the cells from photocurrent curve", "setting": "[2]; A549, 50 μM", "value": 12.5, "unit": "h"},
      {"measurement": "cytotoxicity in A549 cells (photocurrent increase with drug concentration)", "setting": "[2]; A549, 10, 30, 50 μM", "value": "dose-depend cytotoxicity"},
      {"measurement": "speed of cell response (slope of photocurrent curve) at 50 μM relative to 10 μM", "setting": "[2]; A549, first 5 h of stimulation", "value": 6.05, "unit": "times"},
      {"measurement": "speed of cell response (slope of photocurrent curve) at 50 μM relative to 30 μM", "setting": "[2]; A549, first 5 h of stimulation", "value": 2.85, "unit": "times"},
      {"measurement": "decrease of cell confluence", "setting": "[2]; A549, high dose (50 μM)", "value": 23.1, "unit": "%"},
      {"measurement": "decrease of cell confluence", "setting": "[2]; A549, low dose (10 μM)", "value": 0, "unit": "%"},
      {"measurement": "decrease of cell confluence", "setting": "[2]; A549, medium dose (30 μM)", "value": 19.0, "unit": "%"},
      {"measurement": "photocurrent response monitored by the LED sensor during drug treatment", "setting": "[3]", "value": "gradually increased"}
    ]},
    {"compound": "thrombin", "values": [
      {"measurement": "time at which photocurrent reached a plateau", "setting": "NIH 3T3 cells; 3T3 monolayer, thrombin 150 U/mL", "value": 50, "unit": "min"},
      {"measurement": "maximal change (increase) of photocurrent", "setting": "NIH 3T3 cells; 3T3 monolayer, thrombin high dose 150 U/mL", "value": 1.66, "unit": "%"},
      {"measurement": "decrease of photocurrent signal", "setting": "NIH 3T3 cells; 3T3 monolayer, thrombin low dose 2 U/mL, first 10 min, returned to initial level in next 30 min", "value": 0.94, "unit": "%"},
      {"measurement": "calcium fluorescence response of living cells", "setting": "intracellular Ca2+", "value": "biphasic cell response"}
    ]}
  ]
}
